Experiments:
Type in all cases: cell-based
estrogen receptor = test: Estrogen receptor activation test: overall estrogen activity and ERβ versus ERα comparison; conditions: for ERβ/ERα (both % of estradiol at 10^−8M): Hela cells; for estrogen activity / estrogen receptor activation (in words): estradiol as positive control
Description: (§1) Actually, estrogens show their biological activity by regulating estrogen responding genetic transcription.
(§2) Under condition of 37° C. and 5% CO2, Hela cells were cultured in phenol red-free high sugar DMEM culture medium containing 10% calf serum in incubator, the cells were spread in 60% density on 96-well plate when cell density was about 90%, each well was added with 150 ul of phenol red-free DMEM culture medium containing 10% serum, cultivation was performed overnight. To each well of the 96-well plate, 100 ul of serum-free DMEM culture medium and 0.4 μg plasmid (ptk-ERE-luc 2 μg, tk-Renila 1 μg, ERα or ERβ 1 μg) were used for transfection. After 6 h of transfection, each well was added with 150 ul of serum-free phenol red-free DMEM culture medium. Three wells were selected form each group, added with 10^−8M estradiol E2, and substance to be tested in different concentrations, 15 ul/well (sample 4-5 concentration gradient groups), continuously cultured under condition of 37° C., 5% CO2 for 24 h. After 24 h, each well was added with 80 μl of cell disruption solution, and the cells were subjected to freeze thawing once to be sufficiently disrupted. As for the cell lysis solution of each well, its activities to firefly luciferase and Renila luciferase were separately measured.

ERα = molecular target: T1, ERα (Homo sapiens, UniProt P03372); test: ERα luciferase reporter gene transcription activation in transfected Hela cells; conditions: for ERα (% of the control) mean ± S.D. / ERα (% of estradiol): Hela cells; for ERα (% of the control) mean ± S.D.: 24 h; for ERα (% of estradiol): estradiol at 10^−8M
T1 construct: expressed in transfected cells; host or cells: Hela cells (ER expression free)
T1 sequence (P03372 1-595): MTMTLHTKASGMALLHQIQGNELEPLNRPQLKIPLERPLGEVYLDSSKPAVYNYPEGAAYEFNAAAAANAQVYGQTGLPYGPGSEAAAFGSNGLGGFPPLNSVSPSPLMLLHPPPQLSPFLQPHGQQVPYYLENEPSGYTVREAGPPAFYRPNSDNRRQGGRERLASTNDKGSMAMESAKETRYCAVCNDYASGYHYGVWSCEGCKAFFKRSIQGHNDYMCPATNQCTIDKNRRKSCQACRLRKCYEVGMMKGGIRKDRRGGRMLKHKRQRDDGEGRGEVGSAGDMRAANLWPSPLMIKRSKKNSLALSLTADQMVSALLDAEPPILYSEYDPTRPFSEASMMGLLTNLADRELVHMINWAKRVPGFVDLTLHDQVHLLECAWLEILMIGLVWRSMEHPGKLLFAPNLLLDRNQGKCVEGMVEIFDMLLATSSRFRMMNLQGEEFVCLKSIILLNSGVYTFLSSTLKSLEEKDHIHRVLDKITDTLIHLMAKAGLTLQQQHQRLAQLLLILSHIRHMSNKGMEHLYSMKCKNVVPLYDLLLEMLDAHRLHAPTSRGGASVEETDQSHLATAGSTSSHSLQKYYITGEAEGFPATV
From the text: as §1
(§3) Formulation of sample solutions of catechin, (−)epicatechin-3-O-gallate, naringenin-4′-O-glucoside, phlorizin, emodin, chrysophanol (separately obtained from Example 1):
(§4) Catechin, (−)epicatechin-3-O-gallate, naringenin-4′-O-glucoside, phlorizin, emodin, chrysophanol in corresponding weights were separately weighed precisely, than added with DMSO for dissolution, the corresponding sample solution high dose groups (10 μM or 1 μM), were diluted in certain times to separately obtain low dose groups (1 μM to 0.001 μM).
as §2

ERβ = molecular target: T2, ERβ (Homo sapiens, UniProt Q92731); test: ERβ luciferase reporter gene transcription activation in transfected Hela cells; conditions: for ERβ (% of the control) mean ± S.D. / ERβ (% of estradiol): Hela cells; for ERβ (% of the control) mean ± S.D.: 24 h; for ERβ (% of estradiol): estradiol at 10^−8M
T2 construct: expressed in transfected cells; host or cells: Hela cells (ER expression free)
T2 sequence (Q92731 whole entry): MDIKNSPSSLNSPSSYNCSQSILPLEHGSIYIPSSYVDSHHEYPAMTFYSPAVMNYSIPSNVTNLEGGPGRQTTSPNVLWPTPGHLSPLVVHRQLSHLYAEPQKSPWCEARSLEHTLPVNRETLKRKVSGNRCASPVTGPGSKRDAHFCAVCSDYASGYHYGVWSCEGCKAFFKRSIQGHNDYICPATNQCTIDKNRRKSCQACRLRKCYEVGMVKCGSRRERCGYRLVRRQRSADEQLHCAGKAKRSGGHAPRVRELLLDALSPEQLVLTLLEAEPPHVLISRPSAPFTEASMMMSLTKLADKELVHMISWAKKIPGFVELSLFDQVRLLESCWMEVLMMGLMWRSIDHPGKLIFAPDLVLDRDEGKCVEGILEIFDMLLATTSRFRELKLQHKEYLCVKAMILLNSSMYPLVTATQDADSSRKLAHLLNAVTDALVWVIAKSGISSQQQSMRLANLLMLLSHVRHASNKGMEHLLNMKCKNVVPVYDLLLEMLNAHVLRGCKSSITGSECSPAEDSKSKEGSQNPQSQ
From the text: as §1, §3, §4, §2

SMILES | ERβ/ERα (both % of estradiol at 10^−8M) (estrogen receptor; sample 10^−6 M) | ERβ/ERα (both % of estradiol at 10^−8M) (estrogen receptor; sample 10^−7 M) | ERβ/ERα (both % of estradiol at 10^−8M) (estrogen receptor; sample 10^−8 M) | ERβ/ERα (both % of estradiol at 10^−8M) (estrogen receptor; sample 10^−9 M) | ERα (% of the control) mean ± S.D. (ERα; 10^−6 M) | ERα (% of estradiol) (ERα; 10^−6 M) | ERα (% of the control) mean ± S.D. (ERα; 10^−7 M) | ERα (% of estradiol) (ERα; 10^−7 M) | ERα (% of the control) mean ± S.D. (ERα; 10^−8 M) | ERα (% of estradiol) (ERα; 10^−8 M) | ERα (% of the control) mean ± S.D. (ERα; 10^−9 M) | ERα (% of estradiol) (ERα; 10^−9 M) | ERβ (% of the control) mean ± S.D. (ERβ; 10^−6 M) | ERβ (% of estradiol) (ERβ; 10^−6 M) | ERβ (% of the control) mean ± S.D. (ERβ; 10^−7 M) | ERβ (% of estradiol) (ERβ; 10^−7 M) | ERβ (% of the control) mean ± S.D. (ERβ; 10^−8 M) | ERβ (% of estradiol) (ERβ; 10^−8 M) | ERβ (% of the control) mean ± S.D. (ERβ; 10^−9 M) | ERβ (% of estradiol) (ERβ; 10^−9 M) | other results
O=C(O[C@@H]1Cc2c(O)cc(O)cc2O[C@@H]1c1ccc(O)c(O)c1)c1cc(O)c(O)c(O)c1 [(−)Epicatechin-3-O-gallate, (−)epicatechin-3-O-gallate] | 0.90 | 0.93 | 0.97 | 0.94 | 192.40 ± 27.72 % of the control | (90.43) % of estradiol | 200.50 ± 13.72 % of the control | (94.24) % of estradiol | 170.00 ± 13.87 % of the control | (79.90) % of estradiol | 121.95 ± 10.76 % of the control | (57.32) % of estradiol | 148.13 ± 4.22 % of the control | (81.56) % of estradiol | 159.55 ± 28.00 % of the control | (87.84) % of estradiol | 131.16 ± 15.95 % of the control | (77.72) % of estradiol | 97.75 ± 17.66 % of the control | (53.82) % of estradiol | ERβ/ERα (both % of estradiol at 10^−8M) (estrogen receptor; sample 10^−5 M): 0.94; estrogen activity / estrogen receptor activation (in words) (estrogen receptor; listed as (−) epicatechin-3-O-gallate): show relevance to estrogen receptor activation; estrogen activity / estrogen receptor activation (in words) (estrogen receptor; listed as (−)epicatechin-3-O-gallate): potent activity of estrogen; selectivity to receptor subtypes (ERα vs ERβ) (estrogen receptor; result in words): a higher selectivity to ERα than ERβ; ERα (% of the control) mean ± S.D. (ERα; 10^−5 M): 171.88 ± 22.57 % of the control; ERα (% of estradiol) (ERα; 10^−5 M): (80.79) % of estradiol; concentration at which the transcriptional activity of ERα is agonized (ERα; luciferase reporter gene): 10^−8-10^−5 M; concentration of the highest ERα transcription activity (ERα; luciferase reporter gene): 10^−7 M; ERβ (% of the control) mean ± S.D. (ERβ; 10^−5 M): 137.80 ± 15.93 % of the control; ERβ (% of estradiol) (ERβ; 10^−5 M): (75.87) % of estradiol; concentration at which the transcriptional activity of ERβ is agonized (ERβ; luciferase reporter gene): 10^−8-10^−5 M; concentration of the highest ERβ transcription activity (ERβ; luciferase reporter gene): 10^−7 M
Cc1cc(O)c2c(c1)C(=O)c1cccc(O)c1C2=O [Chrysophanol, chrysophanol] | 1.19 | 1.03 | 1.16 | 1.25 | 122.89 ± 8.94 % of the control | (51.51) % of estradiol | 97.77 ± 8.47 % of the control | (40.98) % of estradiol | 80.15 ± 13.88 % of the control | (33.59) % of estradiol | 84.53 ± 14.21 % of the control | (35.43) % of estradiol | 120.43 ± 12.98 % of the control | (61.26) % of estradiol | 83.12 ± 4.78 % of the control | (42.28) % of estradiol | 76.85 ± 8.82 % of the control | (39.09) % of estradiol | 86.99 ± 23.16 % of the control | (44.25) % of estradiol | 
Cc1cc(O)c2c(c1)C(=O)c1cc(O)cc(O)c1C2=O [Emodin, emodin] | 1.03 | 1.00 | 1.00 | 1.07 | 146.40 ± 18.07 % of the control | (64.01) % of estradiol | 109.96 ± 11.33 % of the control | (48.07) % of estradiol | 108.48 ± 27.45 % of the control | (47.43) % of estradiol | 101.27 ± 15.90 % of the control | (44.27) % of estradiol | 145.21 ± 8.06 % of the control | (65.63) % of estradiol | 106.60 ± 10.76 % of the control | (48.18) % of estradiol | 104.92 ± 9.08 % of the control | (47.42) % of estradiol | 104.68 ± 13.96 % of the control | 47.31 % of estradiol | estrogen activity / estrogen receptor activation (in words) (estrogen receptor): show relevance to estrogen receptor activation; selectivity to receptor subtypes (ERα vs ERβ) (estrogen receptor; result in words): no receptor selectivity; concentration at which the transcriptional activity of ERα is agonized (ERα; luciferase reporter gene): 10^−6 M; concentration at which the transcriptional activity of ERβ is agonized (ERβ; luciferase reporter gene): 10^−6 M
O=C1C[C@@H](c2ccc(O[C@@H]3O[C@H](CO)[C@@H](O)[C@H](O)[C@H]3O)cc2)Oc2cc(O)cc(O)c21 [Naringenin-4′-O-glucoside, naringenin-4′-O-glucoside] | 1.07 | 1.13 | 1.18 | 1.29 | 198.72 ± 3.99 % of the control | (97.08) % of estradiol | 182.34 ± 5.97 % of the control | (89.08) % of estradiol | 157.62 ± 14.54 % of the control | (77.00) % of estradiol | 110.04 ± 5.59 % of the control | (53.76) % of estradiol | 207.11 ± 15.76 % of the control | (104.30) % of estradiol | 200.66 ± 5.22 % of the control | (101.06) % of estradiol | 180.98 ± 10.46 % of the control | (91.14) % of estradiol | 137.90 ± 9.40 % of the control | (69.45) % of estradiol | ERβ/ERα (both % of estradiol at 10^−8M) (estrogen receptor; sample 10^−5 M): 1.18; estrogen activity / estrogen receptor activation (in words) (estrogen receptor): show relevance to estrogen receptor activation; estrogen activity / estrogen receptor activation (in words) (estrogen receptor; listed as naringenin-4′-β-glucoside): potent activity of estrogen; dose dependence of agonism of ERα and ERβ transcriptional activity (estrogen receptor; result in words): in a dose dependent manner; selectivity to receptor subtypes (ERα vs ERβ) (estrogen receptor; result in words): a higher selectivity to ERβ than ERα; ERα (% of the control) mean ± S.D. (ERα; 10^−5 M): 188.07 ± 18.61 % of the control; ERα (% of estradiol) (ERα; 10^−5 M): (91.88) % of estradiol; concentration at which the transcriptional activity of ERα is agonized (ERα; luciferase reporter gene): 10^−9-10^−5 M; ERβ (% of the control) mean ± S.D. (ERβ; 10^−5 M): 215.85 ± 22.32 % of the control; ERβ (% of estradiol) (ERβ; 10^−5 M): (108.71) % of estradiol; concentration at which the transcriptional activity of ERβ is agonized (ERβ; luciferase reporter gene): 10^−9-10^−5 M

From patent US20130288989A1, “NEW USE OF CHEMICAL INGREDIENTS IN CYNOMORIUM AS PHYTOESTROGEN” (TIANJIN UNIVERSITY OF TRADITIONAL CHINESE MEDICINE, priority 2010, published 2013)
